Source: patent EP4790048A1, “S1PR4 REGULATOR COMPOUND FOR AUTOIMMUNE DISEASE TREATMENT AND APPLICATION THEREOF” (Shengyuan Zetong (Shanghai) Pharmaceutical Co., Ltd, priority 2023, dated 2025)

How the values were obtained:
[1] = target: T1, hS1P4 (Homo sapiens, UniProt O95977); experiment: Tango β-arrestin recruitment luciferase assay, Tango-hS1P4-CHO; assay type: cell-based; conditions: β-arrestin recruitment; 20 h drug treatment; top 45 µM, 9 serial 5-fold dilutions; positive control 25 µM BAF-312; read-out: Tango-hS1P4-CHO EC50
T1 construct: expressed in transfected cells; host or cells: CHO
T1 sequence (O95977 1-384): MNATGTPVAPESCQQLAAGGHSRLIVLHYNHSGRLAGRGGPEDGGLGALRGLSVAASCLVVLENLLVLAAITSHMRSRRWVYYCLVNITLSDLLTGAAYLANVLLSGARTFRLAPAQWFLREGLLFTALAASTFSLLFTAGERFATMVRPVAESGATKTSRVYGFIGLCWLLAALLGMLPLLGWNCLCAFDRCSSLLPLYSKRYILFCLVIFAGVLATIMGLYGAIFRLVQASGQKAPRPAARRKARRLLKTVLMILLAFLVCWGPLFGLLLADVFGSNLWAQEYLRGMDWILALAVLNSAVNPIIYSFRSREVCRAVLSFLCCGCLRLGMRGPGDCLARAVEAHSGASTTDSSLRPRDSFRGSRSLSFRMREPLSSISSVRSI
Excerpt: (§1) The Tango assay detects ligand-dependent GPCR activity through the interaction between β-arrestin and GPCRs. […] The NTEV fragment and the tetracycline transactivator (tTA), an artificial transcription factor, are fused at the C-terminus of the GPCR, while the CTEV fragment is fused to human β-arrestin 2. To enhance the stability of the interaction between GPCR and β-arrestin, a short sequence from the C-terminus of the human arginine vasopressin receptor 2 (V2 tail) is inserted between the GPCR and NTEV. The V2 tail contains multiple GRK phosphorylation sites, which strengthen β-arrestin binding upon phosphorylation. The CTEV fragment carries the stabile point mutation S219P and is truncated at residue 221 to remove the autoinhibitory C-terminal tail. Meanwhile, β-arrestin 2 is truncated to lack the entire C-terminal tail (residues 383-410 deleted). This truncation confers robust stimulus-dependent receptor desensitization, thereby improving detection sensitivity compared with wild-type β-arrestin 2. The UAS reporter construct consists of upstream activating sequence (UAS) elements, a minimal CMV promoter, and a tTA-dependent luciferase reporter gene. Therefore, constructing Tango cells requires the co-transfection of the above three plasmids into host cells. Upon GPCR activation and β-arrestin recruitment, the TEV enzyme at the β-arrestin terminus cleaves tTA from the GPCR C-terminus. The released tTA initiates tTA-dependent luciferase transcription, and compound activity is ultimately determined by measuring luminescence intensity.
(§2) • 1) Tango cell line from was digested from the culture dish respectively. After cell counting, the cells were plated at a density of 10,000 cells per well with […] into a white opaque 96-well plate (add 60 µL D'Hanks to the surrounding wells), and incubated overnight (20 h) in a 5% CO2 incubator at 37°C. The cell density will reach approximately 90% the next day. • 2) After 20 h, 30 µL of serially diluted compound solution was added to each well. The control group was supplemented with 30 µL F12K complete medium. Each group had three replicate wells. • 3) Samples were collected after 20 h of drug treatment.
(§3) (All compounds were tested at a final concentration of 45 µM, with 9 serial dilutions at 5-fold intervals. 1 µM BAF-312 was used as the positive control for S1PR1, and 25 µM BAF-312 was used as the positive control for S1PR4.

[2] = target: T2, hS1P1 (Homo sapiens, UniProt P21453); experiment: Tango β-arrestin recruitment luciferase assay, Tango-hS1P1-CHO; assay type: cell-based; conditions: β-arrestin recruitment; 20 h drug treatment; top 45 µM, 9 serial 5-fold dilutions; positive control 1 µM BAF-312; read-out: Tango-hS1P1-CHO EC50
T2 construct: expressed in transfected cells; host or cells: CHO
T2 sequence (P21453 whole entry): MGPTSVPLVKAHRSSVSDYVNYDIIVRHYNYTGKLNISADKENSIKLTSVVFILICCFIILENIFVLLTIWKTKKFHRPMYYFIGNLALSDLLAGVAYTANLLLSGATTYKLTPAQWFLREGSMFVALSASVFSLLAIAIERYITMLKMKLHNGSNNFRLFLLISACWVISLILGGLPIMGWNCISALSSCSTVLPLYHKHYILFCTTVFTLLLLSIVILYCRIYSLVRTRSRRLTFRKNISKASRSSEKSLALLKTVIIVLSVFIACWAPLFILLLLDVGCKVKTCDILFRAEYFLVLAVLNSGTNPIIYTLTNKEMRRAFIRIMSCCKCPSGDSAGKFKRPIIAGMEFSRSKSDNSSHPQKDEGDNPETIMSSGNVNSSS
Excerpt: as §1, §2, §3

SMILES | EC50 [1] [nM] | EC50 [2] [nM]
CCc1cc(/C(C)=N/OCc2ccc(C3CCCCC3)c(C)c2)ccc1CN1CC[C@H](C(=O)O)C1 [Compound 60, (S, E)-1-(2-ethyl-4-(1-(((4-cyclohexyl-3-methylbenzyl)oxy)imino)ethyl)benzyl)pyrrolidine-3-carboxylic acid] | 71.7 | 
CCc1cc(/C(C)=N/OCc2ccc(OC(C)C)c(C#N)c2)ccc1CN1CC(C(=O)O)C1 [Compound 16, (E)-1-(4-(1-(((3-cyano-4-isopropoxybenzyl)oxy)imino)ethyl)-2-ethylbenzyl)azetidine-3-carboxylic acid] | 3320 | 
CCc1cc(/C(C)=N/OCc2ccc(-c3cnsc3)cc2)ccc1CN1CC[C@H](C(=O)O)C1 [Compound 74] |  | > 10000
CCc1cc(/C(C)=N/OCc2ccc(-c3ccncn3)c(C)c2)ccc1CN1CC[C@H](C(=O)O)C1 [Compound 76, (S, E)-1-(2-ethyl-4-(1-(((3-methyl-4-(pyrimidin-4-yl)benzyl)oxy)imino)ethyl)benzyl)pyrrolidine-3-carboxylic acid] | 4.39 ± 0.91 | 
CCc1cc(/C(C)=N/OCc2ccc(-c3cnn(C)c3)c(C)c2)ccc1CN1CC[C@H](C(=O)O)C1 [Compound 40] |  | > 10000
CCc1cc(/C(C)=N/OCc2ccc(-c3cncnc3C)c(C)c2)ccc1CN1CC[C@H](C(=O)O)C1 [Compound 83, (S, E)-1-(2-ethyl-4-(1-(((3-methyl-4-(4-methylpyrimidin-5-yl)benzyl)oxy)imino)ethyl)benzyl)pyrrolidine-3-carboxylic acid] |  | > 10000
CCc1cc(/C(C)=N/OCc2ccc(-c3ccccc3)cc2)ccc1CN1CC(C(=O)O)C1 [Compound 20, (E)-1-(4-(1-(([1,1'-biphenyl]-4-ylmethoxy)imino)ethyl)-2-ethylbenzyl)azetidine-3-carboxylic acid] |  | 782 ± 24.9
CCc1cc(/C(C)=N/OCc2ccc(-c3ccc(F)nc3)cc2F)ccc1CN1CC[C@H](C(=O)O)C1 [Compound 65] |  | > 10000
CCc1cc(/C(C)=N/OCc2ccc(-c3cnn(C(C)(C)C)c3)c(C)c2)ccc1CN1CC[C@H](C(=O)O)C1 [Compound 39] |  | > 10000
CCc1cc(/C(C)=N/OCc2ccc(-c3ncc(F)cn3)c(C)c2)ccc1CN1CC[C@H](C(=O)O)C1 [Compound 77, (S, E)-1-(2-ethyl-4-(1-(((4-(5-fluoropyrimidin-2-yl)-3-methylbenzyl)oxy)imino)ethyl)benzyl)pyrrolidine-3-carboxylic acid] | 5.93 ± 4.12 | 
CCc1cc(/C(C)=N/OCc2ccc(-c3ccc(F)nc3)c(C)c2)ccc1CN1CC[C@H](C(=O)O)C1 [Compound 53, (S, E)-1-(2-ethyl-4-(1-(((4-(6-fluoropyridin-3-yl)-3-methylbenzyl)oxy)imino)ethyl)benzyl)pyrrolidine-3-carboxylic acid] | 7.02 ± 0.59 | 
CCc1cc(/C(C)=N/OCc2ccc(-c3cnc(F)cn3)c(C)c2)ccc1CN1CCC(C(=O)O)CC1 [Compound 90, (E)-1-(2-ethyl-4-(1-(((3-methyl-4-(5-fluoropyrazin-2-yl)-benzyl)oxy)imino)ethyl)benzyl)piperidine-4-carboxylic acid] | > 10000 | 
CCc1cc(/C(C)=N/OCc2ccc(-c3ccsc3)cc2)ccc1CN1CC[C@H](C(=O)O)C1 [Compound 56] | 5.05 ± 1.84 | 
CCc1cc(/C(C)=N/OCc2ccc(-c3ccc(F)nc3)nc2)ccc1CN1CC[C@H](C(=O)O)C1 [Compound 66, (S, E)-1-(2-ethyl-4-(1-(((6'-fluoro-[2,3'-bipyridin]-5-yl)methoxy)imino)ethyl)benzyl)pyrrolidine-3-carboxylic acid] |  | > 10000
COc1cc(/C(C)=N/OCc2ccc(C3CCCCC3)c(C(F)(F)F)c2)ccc1CN1CC(C(=O)O)C1 [Compound 27] | 1700 | 
CCc1cc(/C(C)=N/OCc2ccc(-c3ccccc3F)c(F)c2)ccc1CN1CC[C@H](C(=O)O)C1 [Compound 64] | 7.77 ± 1.02 | 

SMILES | EC50 [1] [nM] | EC50 [2] [nM]
CCc1cc(/C(C)=N/OCc2ccc(C3=CCCCC3)c(C)c2)ccc1CN1CC[C@H](C(=O)O)C1 [Compound 61] | 3.33 ± 2.5 | 
C/C(=N\OCc1ccc(C2CCCCC2)c(C(F)(F)F)c1)c1ccc(CN2CC(C(=O)O)C2)c(Br)c1 [Compound 12, (E)-1-(2-bromo-4-(1-((4-cyclohexyl-3-(trifluoromethyl)benzyl)oxy)imino)ethyl)azetidine-3-carboxylic acid] | 2250 | 
CCc1cc(/C(C)=N/OCc2ccc(C3CCCC3)c(C)c2)ccc1CN1CC[C@H](C(=O)O)C1 [Compound 62, (S, E)-1-(2-ethyl-4-(1-(((4-cyclopentyl-3-methylbenzyl)oxy)imino)ethyl)benzyl)pyrrolidine-3-carboxylic acid] | 3.31 ± 0.24 | 
CCc1cc(/C(C)=N/OCc2ccc(-c3cnn(C)c3)cc2F)ccc1CN1CC[C@H](C(=O)O)C1 [Compound 58] | > 10000 | 
CCc1cc(/C(C)=N/OCc2ccc(-c3ccsc3)c(C)c2)ccc1CN1CC[C@H](C(=O)O)C1 [Compound 41, (S, E)-1-(2-ethyl-4-(1-(((3-methyl-4-(thiophen-3-yl)benzyl)oxy)imino)ethyl)benzyl)pyrrolidine-3-carboxylic acid] | 2.91 ± 0.01 | 
CCc1cc(/C(C)=N/OCc2cccc(C(F)(F)F)c2)ccc1CN1CC(C(=O)O)C1 [Compound 13] | 3240 | 
CCc1cc(/C(C)=N/OCc2ccc(-c3cnc(F)cn3)c(C)c2)ccc1CN1CC(C(=O)O)C1 [Compound 91, (E)-1-(2-ethyl-4-(1-(((3-methyl-4-(5-fluoropyrazin-2-yl)-benzyl)oxy)imino)ethyl)benzyl)azetidine-3-carboxylic acid] | > 10000 | 
CCc1cc(/C(C)=N/OCc2ccc(-c3cccs3)c(C)c2)ccc1CN1CC[C@H](C(=O)O)C1 [Compound 72, (S, E)-1-(2-ethyl-4-(1-(((3-methyl-4-(thiophen-2-yl)benzyl)oxy)imino)ethyl)benzyl)pyrrolidine-3-carboxylic acid] | 1.51 ± 0.64 | 
C/C(=N\OCc1ccc(C2CCCCC2)c(C(F)(F)F)c1)c1ccc(CNCCCC(=O)O)cc1 [Compound 8, (E)-4-((4-((1-((4-cyclohexyl-3-(trifluoromethyl)benzyl)oxy)imino)ethyl)benzyl)amino)butanoic acid] | 2400 | 
CCc1cc(/C(C)=N/OCc2ccc(-c3cncnc3)c(C)c2)ccc1CN1CC(C(=O)O)C1 [Compound 81, (E)-1-(2-ethyl-4-(1-(((3-methyl-4-(pyrimidin-5-yl)benzyl)oxy)imino)ethyl)benzyl)azetidine-3-carboxylic acid] | 103 ± 9.1 | 
CCc1cc(/C(C)=N/OCc2ccc(C3=CCCC3)c(C)c2)ccc1CN1CC[C@H](C(=O)O)C1 [Compound 63] | 5.86 ± 0.27 | 
CCc1cc(/C(C)=N/OCc2ccc(-c3ccc(F)nc3)c(F)c2)ccc1CN1CC[C@H](C(=O)O)C1 [Compound 69, (S, E)-1-(2-ethyl-4-(1-(((3-fluoro-4-(6-fluoropyridin-3-yl)benzyl)oxy)imino)ethyl)benzyl)pyrrolidine-3-carboxylic acid] | 8.28 ± 0.38 | 
CCc1cc(/C(C)=N/OCc2ccc(-c3cnc(O)cn3)c(C)c2)ccc1CN1CC[C@H](C(=O)O)C1 [Compound 5, (S, E)-1-(2-ethyl-4-(1-(((3-methyl-4-(5-hydroxypyrazin-2-yl)-benzyl)oxy)imino)ethyl)benzyl)pyrrolidine-3-carboxylic acid] | 4.22 ± 1.19 | 
CCc1cc(/C(C)=N/OCc2ccc(-c3ccc(F)cc3F)c(C)c2)ccc1CN1CC[C@H](C(=O)O)C1 [Compound 47, (S, E)-1-(2-ethyl-4-(1-(((2',4'-difluoro-2-methyl-[1,1'-biphenyl]-4-yl)methoxy)imino)ethyl)benzyl)pyrrolidine-3-carboxylic acid] | 4.67 | 
CCc1cc(/C(C)=N/OCc2ccc(-c3ccsc3)c(F)c2)ccc1CN1CC[C@H](C(=O)O)C1 [Compound 85, (S, E)-1-(2-ethyl-4-(1-(((3-fluoro-4-(thiophen-3-yl)benzyl)oxy)imino)ethyl)benzyl)pyrrolidine-3-carboxylic acid] | 8.52 ± 0.21 | 
